According to ChEMBL document CHEMBL1139533, “Structure-activity relationship studies of a series of antiviral and antibacterial aglycon derivatives of the glycopeptide antibiotics vancomycin, eremomycin, and dechloroeremomycin” (J Med Chem, 2005):
pEC50, pIC50: −log10 of the molar value. ≈ marks a conversion by molar mass, not a printed value.

Tests used:
[1] = tested on: Staphylococcus epidermidis; experiment: Minimum inhibitory concentration against 533 Staphylococcus epidermidis; assay type: functional
Enterococcus faecalis [2] = experiment: Minimum inhibitory concentration against 559 glycopeptide susceptible enterococci Enterococcus faecalis; assay type: functional
Enterococcus faecium [3] = experiment: Minimum inhibitory concentration against glycopeptide resistant enterococci 569 Enterococcus faecium; assay type: functional
Enterococcus faecalis [4] = experiment: Minimum inhibitory concentration against glycopeptide resistant enterococci 560 Enterococcus faecalis; assay type: functional
Enterococcus faecium [5] = experiment: Minimum inhibitory concentration against glycopeptide susceptible enterococci 568 Enterococcus faecium; assay type: functional
[6] = tested on: Staphylococcus haemolyticus; experiment: Minimum inhibitory concentration against 602 Staphylococcus haemolyticus; assay type: functional
Staphylococcus aureus [7] = experiment: Minimum inhibitory concentration against glycopeptide intermediate-resistant 3797 Staphylococcus aureus; assay type: functional
Staphylococcus aureus [8] = experiment: Minimum inhibitory concentration against glycopeptide intermediate-resistant 3798 Staphylococcus aureus; assay type: functional
C3H/3T3 = experiment: Minimal cytotoxic concentration to cause an alteration in C3H/3T3 cell line morphology; assay type: functional; details: Mus musculus
MOLT-4 = experiment: Cytostatic activity to the compound against Molt4/C8 cell line; assay type: functional, cell-based; details: Homo sapiens
[9] = tested on: Human immunodeficiency virus 2; experiment: Effective concentration against human immunodeficiency virus type 2; assay type: functional, organism-based
[10] = tested on: Human immunodeficiency virus 1; experiment: Effective concentration against human immunodeficiency virus type 1; assay type: functional, organism-based
CCRF-CEM = experiment: Cytostatic activity to the compound against CEM cell line; assay type: functional, cell-based; details: Homo sapiens
L1210 = experiment: Cytostatic activity against L1210 cell line; assay type: functional, cell-based; details: Mus musculus
[11] = tested on: Moloney murine sarcoma virus; experiment: Effective concentration against Moloney sarcoma virus; assay type: functional, organism-based, Viruses

`NC(=O)C[C@@H]1NC(=O)[C@H](N)[C@H](O)c2ccc(cc2)Oc2cc3cc(c2O)Oc2ccc(cc2)[C@@H](O)[C@@H]2NC(=O)[C@H](NC(=O)[C@@H]3NC1=O)c1ccc(O)c(c1)-c1c(O)cc(O)cc1[C@@H](C(=O)O)NC2=O` was tested, and the MIC [1] was > 128 µg/mL, the MIC (Enterococcus faecalis [2]) was > 128 µg/mL and the MIC (Enterococcus faecium [3]) was > 128 µg/mL. The MIC (Enterococcus faecalis [4]) was > 128 µg/mL, the MIC (Enterococcus faecium [5]) was > 128 µg/mL and the MIC [6] was > 128 µg/mL. For the same molecule, the MIC (Staphylococcus aureus [7]) was > 128 µg/mL and the MIC (Staphylococcus aureus [8]) was > 128 µg/mL.

`CN[C@H](CC(C)C)C(=O)N[C@H]1C(=O)N[C@@H](CC(N)=O)C(=O)N[C@H]2C(=O)N[C@H]3C(=O)N[C@H](C(=O)N[C@H](C(=O)NC4C5CC6CC(C5)CC4C6)c4cc(O)cc(O)c4-c4cc3ccc4O)[C@H](O)c3ccc(cc3)Oc3cc2cc(c3O)Oc2ccc(cc2Cl)[C@H]1O` (stereo partly drawn) was tested, and the MIC [1] was 16 µg/mL (≈ 12.9 µM), the MCC (C3H/3T3) was 20 µg/mL and the MIC (Enterococcus faecalis [2]) was 8 µg/mL (≈ 6.44 µM). The MIC (Enterococcus faecium [3]) was 32 µg/mL (≈ 25.7 µM), the MIC (Enterococcus faecalis [4]) was 32 µg/mL (≈ 25.7 µM) and the MIC (Enterococcus faecium [5]) was 16 µg/mL (≈ 12.9 µM). The MIC [6] was 16 µg/mL (≈ 12.9 µM), the MIC (Staphylococcus aureus [7]) was 16 µg/mL (≈ 12.9 µM) and the MIC (Staphylococcus aureus [8]) was 16 µg/mL (≈ 12.9 µM). For the same molecule, the pIC50 (MOLT-4) was < 3.60, the pEC50 [9] was 4.70 and the pEC50 [10] was 5.07. For the same molecule, the pIC50 (CCRF-CEM) was < 3.60, the pIC50 (L1210) was < 3.60 and the pEC50 [11] was < 5.40.

For `CN[C@H](CC(C)C)C(=O)N[C@H]1C(=O)N[C@@H](CC(N)=O)C(=O)N[C@H]2C(=O)N[C@H]3C(=O)N[C@H](C(=O)N[C@H](C(=O)O)c4cc(O)cc(O)c4-c4cc3ccc4O)[C@H](O)c3ccc(c(Cl)c3)Oc3cc2cc(c3O)Oc2ccc(cc2Cl)[C@H]1O` [listing 1 of 2 here], the pIC50 (MOLT-4) was < 3.30, the pEC50 [9] was ≤ 3.60 and the pEC50 [10] was 4.19. For the same molecule, the pIC50 (CCRF-CEM) was < 3.30, the pIC50 (L1210) was < 3.30 and the pEC50 [11] was 4.00.

`NC(=O)C[C@@H]1NC(=O)[C@H](N)[C@H](O)c2ccc(c(Cl)c2)Oc2cc3cc(c2O)Oc2ccc(cc2Cl)[C@@H](O)[C@@H]2NC(=O)[C@H](NC(=O)[C@@H]3NC1=O)c1ccc(O)c(c1)-c1c(O)cc(O)cc1[C@@H](C(=O)O)NC2=O` was tested, and the MIC [1] was > 128 µg/mL, the MCC (C3H/3T3) was > 100 µg/mL and the MIC (Enterococcus faecalis [2]) was > 128 µg/mL. The MIC (Enterococcus faecium [3]) was > 128 µg/mL, the MIC (Enterococcus faecalis [4]) was > 128 µg/mL and the MIC (Enterococcus faecium [5]) was > 128 µg/mL. The MIC [6] was > 128 µg/mL, the MIC (Staphylococcus aureus [7]) was > 128 µg/mL and the MIC (Staphylococcus aureus [8]) was > 128 µg/mL. For the same molecule, the pIC50 (MOLT-4) was < 3.60, the pEC50 [9] was ≤ 3.90 and the pEC50 [10] was ≤ 3.90. The pIC50 (CCRF-CEM) was ≤ 3.60, the pIC50 (L1210) was < 3.60 and the pEC50 [11] was 4.06.

With `CN[C@H](CC(C)C)C(=O)N[C@H]1C(=O)N[C@@H](CC(N)=O)C(=O)N[C@H]2C(=O)N[C@H]3C(=O)N[C@H](C(=O)N[C@H](C(=O)NCCCCCCCCCCN)c4cc(O)cc(O)c4-c4cc3ccc4O)[C@H](O)c3ccc(c(Cl)c3)Oc3cc2cc(c3O)Oc2ccc(cc2Cl)[C@H]1O` the MIC [1] was 2 µg/mL (≈ 1.54 µM), the MCC (C3H/3T3) was ≥ 20 µg/mL and the MIC (Enterococcus faecalis [2]) was 0.5 µg/mL (≈ 0.385 µM). The MIC (Enterococcus faecium [3]) was 16 µg/mL (≈ 12.3 µM), the MIC (Enterococcus faecalis [4]) was 16 µg/mL (≈ 12.3 µM) and the MIC (Enterococcus faecium [5]) was 2 µg/mL (≈ 1.54 µM). The MIC [6] was 1 µg/mL (≈ 0.77 µM), the MIC (Staphylococcus aureus [7]) was 2 µg/mL (≈ 1.54 µM) and the MIC (Staphylococcus aureus [8]) was 2 µg/mL (≈ 1.54 µM).

`CN[C@H](CC(C)C)C(=O)N[C@H]1C(=O)N[C@@H](CC(N)=O)C(=O)N[C@H]2C(=O)N[C@H]3C(=O)N[C@H](C(=O)N[C@H](C(=O)O)c4cc(O)cc(O)c4-c4cc3ccc4O)[C@H](O)c3ccc(c(Cl)c3)Oc3cc2cc(c3O)Oc2ccc(cc2Cl)[C@H]1O` [listing 2 of 2 here] was tested, and the MIC [1] was 4 µg/mL (≈ 3.5 µM), the MCC (C3H/3T3) was > 100 µg/mL and the MIC (Enterococcus faecalis [2]) was 2 µg/mL (≈ 1.75 µM). For the same molecule, the MIC (Enterococcus faecium [3]) was > 64 µg/mL, the MIC (Enterococcus faecalis [4]) was > 64 µg/mL and the MIC (Enterococcus faecium [5]) was 4 µg/mL (≈ 3.5 µM). For the same molecule, the MIC [6] was 8 µg/mL (≈ 6.99 µM), the MIC (Staphylococcus aureus [7]) was 4 µg/mL (≈ 3.5 µM) and the MIC (Staphylococcus aureus [8]) was 4 µg/mL (≈ 3.5 µM).

`CN[C@H](CC(C)C)C(=O)N[C@H]1C(=O)N[C@@H](CC(N)=O)C(=O)N[C@H]2C(=O)N[C@H]3C(=O)N[C@H](C(=O)N[C@H](C(=O)NC4C5CC6CC(C5)CC4C6)c4cc(O)cc(O)c4-c4cc3ccc4O)[C@H](O)c3ccc(c(Cl)c3)Oc3cc2cc(c3O)Oc2ccc(cc2Cl)[C@H]1O` (stereo partly drawn) [listing 1 of 2 here] gave an MIC [1] of 4 µg/mL (≈ 3.13 µM), an MCC (C3H/3T3) of 100 µg/mL and an MIC (Enterococcus faecalis [2]) of 2 µg/mL (≈ 1.57 µM). It also gave an MIC (Enterococcus faecium [3]) of 32 µg/mL (≈ 25.1 µM), an MIC (Enterococcus faecalis [4]) of 32 µg/mL (≈ 25.1 µM) and an MIC (Enterococcus faecium [5]) of 2 µg/mL (≈ 1.57 µM). The MIC [6] was 4 µg/mL (≈ 3.13 µM), the MIC (Staphylococcus aureus [7]) was 4 µg/mL (≈ 3.13 µM) and the MIC (Staphylococcus aureus [8]) was 4 µg/mL (≈ 3.13 µM).

For `CN[C@H](CC(C)C)C(=O)N[C@H]1C(=O)N[C@@H](CC(N)=O)C(=O)N[C@H]2C(=O)N[C@H]3C(=O)N[C@H](C(=O)N[C@H](C(=O)NCC45CC6CC(CC(C6)C4)C5)c4cc(O)cc(O)c4-c4cc3ccc4O)[C@H](O)c3ccc(c(Cl)c3)Oc3cc2cc(c3O)Oc2ccc(cc2Cl)[C@H]1O`, the pIC50 (MOLT-4) was 4.14, the pEC50 [9] was 5.02 and the pEC50 [10] was 5.52. The pIC50 (CCRF-CEM) was ≤ 3.60, the pIC50 (L1210) was ≤ 3.60 and the pEC50 [11] was 5.00.

For `CN[C@H](CC(C)C)C(=O)N[C@H]1C(=O)N[C@@H](CC(N)=O)C(=O)N[C@H]2C(=O)N[C@H]3C(=O)N[C@H](C(=O)N[C@H](C(=O)NC4C5CC6CC(C5)CC4C6)c4cc(O)cc(O)c4-c4cc3ccc4O)[C@H](O)c3ccc(c(Cl)c3)Oc3cc2cc(c3O)Oc2ccc(cc2Cl)[C@H]1O` (stereo partly drawn) [listing 2 of 2 here], the pIC50 (MOLT-4) was ≤ 3.60, the pEC50 [9] was 5.07 and the pEC50 [10] was 5.52. The pIC50 (CCRF-CEM) was < 3.60, the pIC50 (L1210) was ≤ 3.60 and the pEC50 [11] was 4.89.
